Measurements taken from patent US6486167B1, “Heterocyclic cytotoxic agents” (Rutgers, The State University of New Jersey, priority 1997, dated 2002).
Read-outs that look alike come from different tables or passages of the source.

Legend:
[1] = test system: human lymphoblast RPMI 8402; assay: MTT-microtiter plate tetrazolinium cytotoxicity assay (Test B), RPMI 8402; type: cell-based; conditions: read-out: Cytotoxicity IC50 RPMI
Experimental: (§1) The cytotoxicity was determined using the MTT-microtiter plate tetrazolinium cytotoxicity assay (MTA) (See Chen A. Y. et al. Cancer Res. 1993, 53, 1332; Mosmann, T. J., J. Immunol. Methods 1983, 65, 55; and Carmichael, J. et al. Cancer Res. 1987, 47, 936).

[2] = test system: camptothecin-resistant variant cell line, CPT-K5; assay: MTT-microtiter plate tetrazolinium cytotoxicity assay (Test B), CPT-K5; type: cell-based, human; conditions: read-out: Cytotoxicity IC50 CPT-K5
Experimental: as §1

human topoisomerase I = target: T1, human topoisomerase I (Homo sapiens, UniProt P11387); assay: Topoisomerase I-mediated DNA cleavage assay (Test A); type: biochemical; conditions: for Topo I-mediated DNA cleavage (REC, Relative Effective Concentration): concentration relative to camptothecin (CPT = 1) producing the same cleavage on plasmid DNA, human topoisomerase I; for topoisomerase I poisoning activity (in words): qualitative statement
T1 construct: made in house
T1 sequence (P11387 1-765): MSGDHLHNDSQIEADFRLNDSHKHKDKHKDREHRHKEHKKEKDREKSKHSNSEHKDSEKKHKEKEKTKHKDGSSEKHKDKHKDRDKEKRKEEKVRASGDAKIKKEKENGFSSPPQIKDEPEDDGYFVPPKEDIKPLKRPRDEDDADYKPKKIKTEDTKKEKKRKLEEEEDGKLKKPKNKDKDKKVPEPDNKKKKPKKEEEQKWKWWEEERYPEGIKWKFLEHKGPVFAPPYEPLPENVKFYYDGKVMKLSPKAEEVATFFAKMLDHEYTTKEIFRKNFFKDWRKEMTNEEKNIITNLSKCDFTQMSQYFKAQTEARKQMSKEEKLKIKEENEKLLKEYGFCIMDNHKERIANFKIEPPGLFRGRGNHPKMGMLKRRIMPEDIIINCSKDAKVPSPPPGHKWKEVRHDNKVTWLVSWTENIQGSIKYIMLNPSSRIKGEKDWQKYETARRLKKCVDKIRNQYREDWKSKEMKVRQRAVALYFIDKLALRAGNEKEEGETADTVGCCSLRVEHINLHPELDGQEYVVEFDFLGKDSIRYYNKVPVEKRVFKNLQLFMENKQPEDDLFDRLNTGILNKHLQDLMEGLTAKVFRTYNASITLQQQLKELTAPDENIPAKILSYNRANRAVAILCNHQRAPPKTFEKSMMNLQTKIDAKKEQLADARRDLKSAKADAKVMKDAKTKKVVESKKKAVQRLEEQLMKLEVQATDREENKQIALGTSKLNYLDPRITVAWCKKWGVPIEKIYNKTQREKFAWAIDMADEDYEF
Experimental: (§2) Topoisomerase I and Topoisomerase II Cleavage Assay
(§3) Representative compounds of the invention were evaluated in cleavage assays for the recombinant topoisomerases I and calf thymus topoisomerases I and II. These assays were preformed as described by B. Gatto et al. Cancer Res., 1996, 56, 2795-2800. Human topoisomerase I was isolated as a recombinant fusion protein using a T7 expression system. DNA topoisomerase II was purified from calf thymus gland as reported by Halligan, B. D.; Edwards, K. A.; Liu, L. F. “Purification and characterization of a type II DNA topoisomerase from bovine calf thymus,” J. Biol. Chem. 1985, 260, 2475. Plasmid YEpG was purified by the alkali lysis method followed by phenol deproteination and CsCl/ethidium isopycnic centrifugation as described by Maniatis, T.; Fritsch, E. F.; Sambrook, J. Molecular Cloning, a Laboratory Manual; Cold Spring Harbor Laboratory: Cold Spring Harbor, N.Y. 1982; pp 149-185. The end-labeling of the plasmid was accomplished by digestion with a restriction enzyme followed by end-filling with Klenow polymerase as previously described by Liu, L. F.; Rowe, T. C.; Yang, L.; Tewey, K. M.; Chen, G. L. “Cleavage of DNA by mammalian topoisomerase II,” J. Biol. Chem. 1983, 258, 15365.

[3] = test system: calf thymus topoisomerase II; assay: Topoisomerase II-mediated DNA cleavage assay (Test A); type: biochemical; conditions: concentration relative to VM-26 (= 1) producing the same cleavage on plasmid DNA
Experimental: as §2, §3

[4] = Homo sapiens, 96 h, CPT-K5 camptothecin-resistant cells, 4 days of continuous drug exposure

Compound	IC50 ([1]; Homo sapiens, RPMI 8402, 96 h)	melting point	IC50 ([2]; Homo sapiens, CPT-K5, 96 h)	Topo I-mediated DNA cleavage (REC, Relative Effective Concentration) (human topoisomerase I)	topoisomerase I poisoning activity (in words) (human topoisomerase I)	Topo II-mediated DNA cleavage (REC, Relative Effective Concentration) [3]	IC50 [2, 4]	IC50 ([1]; Homo sapiens, 96 h, RPMI 8402 cells, 4 days of continuous drug exposure)	IC50 ([1]; RPMI 8402 cells, 4 days of continuous drug exposure)	IC50 ([2]; CPT-K5 camptothecin-resistant cells, 4 days of continuous drug exposure)
COc1cc2ccc3c4cc(OC)c(OC)cc4ncc3c2cc1OC [Compound 4, 2,3,8,9-Tetramethoxybenzo[i]phenanthridine]	22.9 µM	267 to 268 °C	22.9 µM	>1000	significantly less topoisomerase I poisioning activity	>1000	–	–	–	–
COc1cc2nc(C)c3c4cc5c(cc4ccc3c2cc1OC)OCO5 [Compound 7, 8,9-Dimethoxy-5-methyl-2,3-methylenedioxybenzo[i]-phenanthridine]	10.1 µM	> 250 °C	14.4 µM	200	potent activity	100	–	–	–	–
COc1cc2c[n+](C)c3c4cc5c(cc4ccc3c2cc1OC)OCO5 [Nitidine, reference compound]	0.65 µM	–	–	1	–	1	> 2.6 µM	–	–	–
CC[C@@]1(O)C(=O)OCc2c1cc1n(c2=O)Cc2cc3ccccc3nc2-1 [CPT, camptothecin, reference compound]	–	–	–	1	–	>1000	> 10 µM	0.004 µM	–	–
COc1cc2ccc3c4cc(OCc5ccccc5)ccc4ncc3c2cc1OC [Compound 30, 2,3-Dimethoxy-9-benzyloxybenzo[i]phenanthridine]	7.5 µM	–	7.5 µM	250	–	>1000	–	–	–	–
COc1ccc2c(c1)ncc1c3cc(OC)c(OC)cc3ccc21 [Example 9, 2,3,8-Trimethoxybenzo[i]phenanthridine]	–	200 to 202 °C	–	–	–	–	–	–	–	–
COc1cc2ccc3c4cc(N)ccc4ncc3c2cc1OC [Compound 31, 2,3-Dimethoxy-9-aminobenzo[i]phenanthridine]	3 µM	–	3 µM	50	–	>1000	–	–	–	–
COc1cc2ccc3c4cc5c(cc4ncc3c2cc1OC)OCO5 [Compound 28, 2,3-Dimethoxy-8,9-methylenedioxybenzo[i]phenanthridine]	0.2 µM	171 °C	0.2 µM	25	potent topoisomerase poisioning activity	>1000	–	–	–	–
COc1cc2ncc3c4cc5c(cc4ccc3c2cc1OC)OCO5 [Compound 6, 2,3-Methylenedioxy-8,9-dimethoxybenzo[i]phenanthridine]	7.5 µM	> 250 °C	7 µM	100	potent activity	10	–	–	–	–
2,3,8,9-Dimethylenedioxybenzo[i]phenanthridine [Compound 29]	–	–	–	100	–	>1000	–	–	–	–
COc1cc([C@@H]2c3cc4c(cc3[C@@H](O[C@@H]3O[C@@H]5CO[C@@H](c6cccs6)O[C@H]5[C@H](O)[C@H]3O)[C@H]3COC(=O)[C@H]23)OCO4)cc(OC)c1O [VM-26, teniposide, reference compound]	–	–	–	>1000	–	1	–	–	0.3 µM	0.5 µM
COc1cc2ccc3c4cc(OC)c(OC)cc4nc(C)c3c2cc1OC [Compound 5, 5-Methyl-2,3,8,9-tetramethoxybenzo[i]phenanthridine]	27.5 µM	255 to 257 °C	> 27.5 µM	>1000	significantly less topoisomerase I poisioning activity	>1000	–	–	–	–
